Experimental data published in patent publication US8084621B2, “3-Pyrrolo[b]cyclohexylene-2-dihydroindolinone derivatives and uses thereof” (Jiangsu Simcere Pharmaceutical R&D Co. Ltd., priority 2006, dated 2011).

Target: T1, VEGFR-2 (Homo sapiens, UniProt P35968)
T1 construct: purchased Cell Signaling Technology CO
Test: Protein kinase activity by ELISA in vitro, VEGFR-2
Type: biochemical
Details: for inhibition at 0.1 µM: concentration of 10^−7 mol/L, read-out: kinase inhibition ratio, VEGFR-2; for IC50: read-out: IC50 of the VEGF Receptor Kinase
Procedure: An ELISA (Enzyme-Linked Immunosorbent Sandwich Assay) procedure may be used to detect and measure the level of protein tyrosine kinase activity. […] According to the principle of ELISA, a monoclonal antibody can react with phosphorylated substrate specially, so biotin-labeled substrate is binded to streptavidin-coated ELISA plate, and then binded to a HRP-labeled goat anti-mouse antibody. Finally TMB is added for a color reaction and the value of A450-A630 is read by ELISA plate reader. The OD value can reflect the inhibitory activity of the VEGFR-2, PDGFR-β, c-Kit tyrosine kinases etc. treated with the test compounds at the different concentrations. So, the assay may be used to measure the inhibition ratio of the compounds for the tyrosine kinase activity. Similar assays can be designed along the same lines for any PK using techniques well known in the art.
According to the principle of ELISA, a monoclonal antibody can react with phosphorylated substrate specially, so biotin-labeled substrate is binded to streptavidin-coated ELISA plate, and then binded to a HRP-labeled goat anti-mouse antibody. Finally TMB is added for a color reaction and the value of A450-A630 is read by ELISA plate reader. The OD value can reflect the inhibitory activity of the VEGFR-2, PDGFR-β c-Kit tyrosine kinases treated with the test compounds at the different concentrations. So, the assay may be used to measure the inhibition ratio of the compounds for the tyrosine kinase activity. Similar assays can be designed along the same lines for any PK using techniques well known in the art.
VEGF Receptor 2, PDGF Receptor-beta and c-kit kinase assay kit (include kinase, 1.25M DTT, substrate peptide, 10 mM ATP, P-Tyr-100 Mouse antibody, 4×HTScan tyrosine kinase buffer), Cell Signaling Technology CO.; HRP labeled goat anti mouse IgG, Protein Tech CO.; TMB, Pierce CO.; Streptavidin Microtitration Plate, Greiner Bio-one CO.; Infinite M200 Reader, Tecan CO.
1.2.1 Immediately transfer enzyme from −80° C. to ice. Allow enzyme to thaw on ice then at 4° C. and centrifugate transiently to the bottom of centrifuge tube, then lay back on ice quickly
1.2.2 Add 10 μl of DTT (1.25 M) to 2.5 ml of 4×HTScan tyrosine kinase buffer (240 mM HEPES pH 7.5, 20 mM MgCl2, 20 mM MnCl2, 12 μM Na3VO4). Transfer 0.6 ml of DTT/Kinase buffer to each enzyme tube to make 4× reaction Cocktail. Incubate 12.5 μl of the 4× reaction cocktail with 12.5 μl/well prediluted compound of interest for 5 minutes at room temperature, and set blank control, free-enzyme control, negative control and positive control. 1.2.3 Add 10 μl 10 mM ATP to 1.25 ml 6 μM substrate peptide. Dilute the mixture with dH20 to 2.5 ml to make 2×ATP/substrate cocktail. Add 25 μl of 2×ATP/substrate cocktail to 25 μl/well preincubated reaction cocktail/compound. Incubate reaction plate at room temperature for 30 minutes. 1.2.4 Add 50 μl/well stop Buffer (50 mM EDTA, pH 8) to stop the reaction. Transfer 25 μl of each reaction and 75 μl dH2O/well to a 96-well streptavidin coated plate and incubate at room temperature for 60 minutes. Wash three times with 200 μl/well PBS/T(1×PBS, 0.05% Tween-20). 1.2.5 Dilute primary antibody, Phospho-Tyrosine mAb (P-Tyr-100), 1:500 in PBS/T with 1% BSA. Add 100 μl/well primary antibody. Incubate at room temperature for 60 minutes. Wash three times with 200 μl/well PBS/T(1×PBS, 0.05% Tween-20). 1.2.6 Prepare appropriate dilution of HRP labeled secondary antibody, 1:500 in PBS/T with 1% BSA. Add 100 μl/well secondary antibody solution. Incubate at room temperature for 30 minutes. Wash five times with 200 μl/well PBS/T 1.2.7 Add 100 μl/well TMB substrate and incubate at room temperature for 1-10 minutes. Add 50 μl 2M H2SO4 to stop the color reaction. Read the absorbance of A450-A630 with the Infinite M200 microtiter plate reader. 1.2.8 Calculate the inhibition ratio with the following formula: […]

T1 sequence (P35968 20-1356): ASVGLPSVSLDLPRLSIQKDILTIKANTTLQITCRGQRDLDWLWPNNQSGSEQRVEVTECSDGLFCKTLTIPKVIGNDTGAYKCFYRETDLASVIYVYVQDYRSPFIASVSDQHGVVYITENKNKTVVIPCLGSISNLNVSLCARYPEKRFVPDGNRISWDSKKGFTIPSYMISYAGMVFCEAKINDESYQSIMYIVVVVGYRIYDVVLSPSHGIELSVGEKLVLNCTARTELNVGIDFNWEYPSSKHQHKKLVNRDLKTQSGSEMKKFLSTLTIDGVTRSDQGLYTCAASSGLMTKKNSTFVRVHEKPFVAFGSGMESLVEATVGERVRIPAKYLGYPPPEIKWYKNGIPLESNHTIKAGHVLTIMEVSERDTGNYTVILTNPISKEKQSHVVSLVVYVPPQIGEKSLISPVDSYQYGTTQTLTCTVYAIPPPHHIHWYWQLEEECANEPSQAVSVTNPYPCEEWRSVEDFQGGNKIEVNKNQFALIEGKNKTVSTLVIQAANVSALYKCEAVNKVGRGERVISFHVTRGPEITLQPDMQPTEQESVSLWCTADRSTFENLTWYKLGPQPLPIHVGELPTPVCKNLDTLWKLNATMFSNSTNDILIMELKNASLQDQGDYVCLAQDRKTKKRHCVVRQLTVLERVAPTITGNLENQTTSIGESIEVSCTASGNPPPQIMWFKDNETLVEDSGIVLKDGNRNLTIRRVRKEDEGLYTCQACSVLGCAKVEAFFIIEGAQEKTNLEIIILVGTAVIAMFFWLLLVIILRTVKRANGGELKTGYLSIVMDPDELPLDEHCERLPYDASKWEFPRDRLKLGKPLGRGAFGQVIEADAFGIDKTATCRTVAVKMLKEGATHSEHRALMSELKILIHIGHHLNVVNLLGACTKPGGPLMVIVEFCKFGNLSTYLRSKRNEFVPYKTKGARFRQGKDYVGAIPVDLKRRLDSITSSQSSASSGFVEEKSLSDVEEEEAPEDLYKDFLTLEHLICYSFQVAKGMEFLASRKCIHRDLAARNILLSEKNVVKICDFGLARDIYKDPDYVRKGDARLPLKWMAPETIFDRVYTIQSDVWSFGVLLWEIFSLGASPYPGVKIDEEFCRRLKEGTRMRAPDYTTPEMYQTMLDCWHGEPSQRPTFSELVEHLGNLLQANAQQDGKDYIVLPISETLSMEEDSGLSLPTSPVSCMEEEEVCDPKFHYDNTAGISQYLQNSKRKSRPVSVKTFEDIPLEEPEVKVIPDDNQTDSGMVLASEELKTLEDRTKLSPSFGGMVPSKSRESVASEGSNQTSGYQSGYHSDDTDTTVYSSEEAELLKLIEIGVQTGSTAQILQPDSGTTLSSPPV

| SMILES | inhibition at 0.1 µM | IC50 |
| --- | --- | --- |
| CCN(CC)CCNC(=O)c1c(C)[nH]c2c1CCC/C2=C1/C(=O)Nc2ccc(F)cc21 [I-2, N-(2-(diethylamino)ethyl)-2-methyl-7-[1,2-dihydro-5-fluoro-2-oxo-3H-indol-(Z)-3-ylidene]-4,5,6,7-tetrahydro-1H-indole-3-carboxamide] | 75% |  |
| CCN(CC)CCNC(=O)c1c(C)[nH]c2c1CCC/C2=C1/C(=O)Nc2ccc(Cl)cc21 [I-3, N-(2-(diethylamino)ethyl)-2-methyl-7-[1,2-dihydro-5-chloro-2-oxo-3H-indol-(Z)-3-ylidene]-4,5,6,7-tetrahydro-1H-indole-3-carboxamide] | 54% | 5.3 nM |
| CCN(CC)CCNC(=O)c1c(C)[nH]c2c1CCC/C2=C1/C(=O)Nc2ccc(C)cc21 [I-4, N-(2-(diethylamino)ethyl)-2-methyl-7-[1,2-dihydro-5-methyl-2-oxo-3H-indol-(Z)-3-ylidene]-4,5,6,7-tetrahydro-1H-indole-3-carboxamide] | 76% | 5.6 nM |
| Cc1[nH]c2c(c1C(=O)NCCO)CCC/C2=C1/C(=O)Nc2ccc(F)cc21 [I-9, N-(2-hydroxyethyl)-2-methyl-7-[1,2-dihydro-5-fluoro-2-oxo-3H-indol-(Z)-3-ylidene]-4,5,6,7-tetrahydro-1H-indole-3-carboxamide] |  | 30 nM |
| Cc1[nH]c2c(c1C(=O)N1CCN(C)CC1)CCC/C2=C1/C(=O)Nc2ccc(F)cc21 [I-14, 2-methyl-3-(4-methylpiperazine-1-carbonyl)-7-[1,2-dihydro-5-fluoro-2-oxo-3H-indol-(Z)-3-ylidene]-4,5,6,7-tetrahydro-1H-indole] |  | 79 nM |
| CCN(CC)CCNC(=O)c1c(C)[nH]c2c1CCC/C2=C1/C(=O)Nc2ccccc21 [I-5, N-(2-(diethylamino)ethyl)-2-methyl-7-[1,2-dihydro-2-oxo-3H-indol-(Z)-3-ylidene]-4,5,6,7-tetrahydro-1H-indole-3-carboxamide] | 74% | 9 nM |
| Cc1[nH]c2c(c1C(=O)NCCCN(C)C)CCC/C2=C1/C(=O)Nc2ccc(Cl)cc21 [I-7, N-(3-(dimethylamino)propyl)-2-methyl-7-[1,2-dihydro-5-chloro-2-oxo-3H-indol-(Z)-3-ylidene]-4,5,6,7-tetrahydro-1H-indole-3-carboxamide] | 82% |  |
| Cc1[nH]c2c(c1C(=O)NCCN(C)C)CCC/C2=C1/C(=O)Nc2ccc(F)cc21 [I-6, N-(2-(dimethylamino)ethyl)-2-methyl-7-[1,2-dihydro-5-fluoro-2-oxo-3H-indol-(Z)-3-ylidene]-4,5,6,7-tetrahydro-1H-indole-3-carboxamide] | 79% |  |

The next lines start with the values.

| inhibition at 0.1 µM | IC50 | SMILES |
| --- | --- | --- |
| 76% |  | Cc1[nH]c2c(c1C(=O)NCCO)CCC/C2=C1/C(=O)Nc2ccccc21 [I-8, N-(2-hydroxyethyl)-2-methyl-7-[1,2-dihydro-2-oxo-3H-indol-(Z)-3-ylidene]-4,5,6,7-tetrahydro-1H-indole-3-carboxamide] |
|  | 25 nM | Cc1[nH]c2c(c1C(=O)NCC(O)CN1CCN(C)CC1)CCC/C2=C1/C(=O)Nc2ccc(F)cc21 (stereo not drawn) [I-77, N-[2-hydroxy-3-(4-methylpiperazin-1-yl)propyl]-2-methyl-7-[1,2-dihydro-5-fluoro-2-oxo-3H-indol-(Z)-3-ylidene]-4,5,6,7-tetrahydro-1H-indole-3-carboxamide] |
|  | 43 nM | Cc1[nH]c2c(c1C(=O)NCC(O)CN1CCOCC1)CCC/C2=C1/C(=O)Nc2ccc(F)cc21 (stereo not drawn) [I-68, N-(2-hydroxy-3-morpholinopropyl)-2-methyl-7-[1,2-dihydro-5-fluoro-2-oxo-3H-indol-(Z)-3-ylidene]-4,5,6,7-tetrahydro-1H-indole-3-carboxamide] |
|  | 34 nM | Cc1[nH]c2c(c1C(=O)NCC(O)CN1CCCC1)CCC/C2=C1/C(=O)Nc2ccc(F)cc21 (stereo not drawn) [I-71, N-(2-hydroxy-3-(pyrrolidin-1-yl)propyl)-2-methyl-7-[1,2-dihydro-5-fluoro-2-oxo-3H-indol-(Z)-3-ylidene]-4,5,6,7-tetrahydro-1H-indole-3-carboxamide] |
| 84% |  | Cc1[nH]c2c(c1C(=O)NCC(O)CN1CCCC1)CCC/C2=C1/C(=O)Nc2ccccc21 (stereo not drawn) [I-70, N-(2-hydroxy-3-(pyrrolidin-1-yl)propyl)-2-methyl-7-[1,2-dihydro-2-oxo-3H-indol-(Z)-3-ylidene]-4,5,6,7-tetrahydro-1H-indole-3-carboxamide] |
|  | 13 nM | Cc1[nH]c2c(c1C(=O)NCC(O)CN1CCCCC1)CCC/C2=C1/C(=O)Nc2ccc(F)cc21 (stereo not drawn) [I-74, N-(2-hydroxy-3-(piperidin-1-yl)propyl)-2-methyl-7-[1,2-dihydro-5-fluoro-2-oxo-3H-indol-(Z)-3-ylidene]-4,5,6,7-tetrahydro-1H-indole-3-carboxamide] |
| 80% |  | CCN(CC)CC(O)CNC(=O)c1c(C)[nH]c2c1CCC/C2=C1/C(=O)Nc2ccccc21 (stereo not drawn) [I-63, N-(3-(diethylamino)-2-hydroxypropyl)-2-methyl-7-[1,2-dihydro-2-oxo-3H-indol-(Z)-3-ylidene]-4,5,6,7-tetrahydro-1H-indole-3-carboxamide] |
